This note sets out measurements from patent US11214803B2, “Modulators of YAP1 expression” (Ionis Pharmaceuticals, Inc., priority 2019, dated 2022).

Strand notation (5' to 3'): a small letter for the sugar, then the base; units joined by * are phosphorothioate-linked, units joined directly phosphodiester-linked; [ ] holds rarer units or linkages, { } end groups; capitals alone tell only the bases. k = constrained ethyl (cEt); [5mC] = 5-methylcytosine; d = 2'-deoxy (DNA)

This series deals with Yap1 mRNA. Description: Antisense inhibition of human Yap1 in A-431 cells by cEt gapmers, single dose (Example 3, RTS36584). It counts as cell-based. Particulars: Table 8; A-431 cells, 5,000 cells per well, free uptake, 2,000 nM, approximately 48 hours; RTS36584; normalized to RIBOGREEN; Yap1 mRNA relative to untreated control cells. Here is the method:
Modified oligonucleotides were designed to target a Yap1 nucleic acid and were tested for their effect on Yap1 mRNA level in vitro. The modified oligonucleotides were tested in a series of experiments that had similar culture conditions. Cultured A-431 cells at a density of 5,000 cells per well were treated using free uptake with 2,000 nM of modified oligonucleotide. After a treatment period of approximately 48 hours, RNA was isolated from the cells and Yap1 mRNA levels were measured by quantitative real-time RTPCR. Human primer probe set RTS36584 (forward sequence […], designated herein as SEQ ID NO.: 14; reverse sequence […], designated herein as SEQ ID NO.: 15; probe sequence […], designated herein as SEQ ID NO.: 16) was used to measure mRNA levels. Yap1 mRNA levels were normalized to total RNA content, as measured by RIBOGREEN®. Results are presented in the tables below as percent control of the amount of Yap1 mRNA relative to untreated control cells (% UTC). The modified oligonucleotides with percent control values marked with an asterisk (*) target the amplicon region of the primer probe set. Additional assays may be used to measure the potency and efficacy of the modified oligonucleotides targeting the amplicon region.
The newly designed modified oligonucleotides in the Tables below were designed as 3-10-3 cEt gapmers. The gapmers are 16 nucleosides in length, wherein the central gap segment comprises of ten 2′-deoxynucleosides and is flanked by wing segments on the 5′ direction and the 3′ direction comprising three nucleosides each. Each nucleoside in the 5′ wing segment and each nucleoside in the 3′ wing segment has a cEt sugar modification. The internucleoside linkages throughout each gapmer are phosphorothioate (P═S) linkages. All cytosine residues throughout each gapmer are 5-methylcytosines.
“Start site” indicates the 5′-most nucleoside to which the gapmer is targeted in the human gene sequence. “Stop site” indicates the 3′-most nucleoside to which the gapmer is targeted human gene sequence. […] Activity of the modified oligonucleotide may be defined in a different experiment.
Consider “958368 (antisense kA*kT*k[5mC]*dT*dA*dG*d[5mC]*dT*dT*dG*dG*dT*dG*kG*k[5mC]*kA) [Compound 958368]”, for which the “YAP1 (% UTC)” value is reported as 11 % UTC.
Regarding “958369 (antisense kT*kT*kA*dT*d[5mC]*dT*dA*dG*d[5mC]*dT*dT*dG*dG*kT*kG*kG) [Compound 958369]”, the “YAP1 (% UTC)” value amounted to 4 % UTC.
The figure for “958370 (antisense k[5mC]*kT*kT*dT*dA*dT*d[5mC]*dT*dA*dG*d[5mC]*dT*dT*kG*kG*kT) [Compound 958370]” is 7 % UTC.
The figure for “958371 (antisense kA*k[5mC]*k[5mC]*dA*dA*d[5mC]*dT*dA*dT*dT*dA*d[5mC]*dT*kT*k[5mC]*kA) [Compound 958371]” is 2 % UTC; for “958372 (antisense kG*kG*kT*dG*d[5mC]*dT*dA*dG*d[5mC]*dT*dG*dG*dT*kG*k[5mC]*k[5mC]) [Compound 958372]” it is 49 % UTC.
The figure for “958373 (antisense kA*kG*kG*dT*dG*d[5mC]*dT*dA*dG*d[5mC]*dT*dG*dG*kT*kG*k[5mC]) [Compound 958373]” is 8 % UTC; for “958374 (antisense k[5mC]*kA*kG*dA*dG*dG*dT*dG*d[5mC]*dT*dA*dG*d[5mC]*kT*kG*kG) [Compound 958374]” it is 38 % UTC; for “958375 (antisense kA*kA*kA*dG*d[5mC]*d[5mC]*dT*dT*dA*dG*dA*dG*dT*k[5mC]*kA*kA) [Compound 958375]” it is 2 % UTC.
Regarding “958376 (antisense k[5mC]*kT*kG*dG*dG*dA*dT*dT*dG*dA*dT*dA*dT*kT*k[5mC]*k[5mC]) [Compound 958376]”, the “YAP1 (% UTC)” value is reported as 31 % UTC.
The figure for “958377 (antisense kG*k[5mC]*kT*dG*dG*dG*dA*dT*dT*dG*dA*dT*dA*kT*kT*k[5mC]) [Compound 958377]” is 9 % UTC; for “958378 (antisense k[5mC]*kA*kT*d[5mC]*dA*dG*dT*dA*d[5mC]*dT*dG*dG*d[5mC]*k[5mC]*kT*kA) [Compound 958378]” it is 25 % UTC.
The figure for “958379 (antisense kG*k[5mC]*kG*d[5mC]*d[5mC]*d[5mC]*dG*d[5mC]*d[5mC]*d[5mC]*dG*d[5mC]*dA*k[5mC]*k[5mC]*kG) [Compound 958379]” is 124 % UTC; for “958380 (antisense k[5mC]*kG*k[5mC]*dG*d[5mC]*d[5mC]*d[5mC]*dG*d[5mC]*d[5mC]*d[5mC]*dG*d[5mC]*kA*k[5mC]*k[5mC]) [Compound 958380]” it is 106 % UTC.
Next, “958381 (antisense kT*k[5mC]*k[5mC]*dT*d[5mC]*dT*dG*d[5mC]*dG*d[5mC]*dG*d[5mC]*d[5mC]*k[5mC]*kG*k[5mC]) [Compound 958381]”: 146 % UTC.
On to “958382 (antisense kT*kT*k[5mC]*d[5mC]*dT*d[5mC]*dT*dG*d[5mC]*dG*d[5mC]*dG*d[5mC]*k[5mC]*k[5mC]*kG) [Compound 958382]”, for which the “YAP1 (% UTC)” value amounted to 111 % UTC.
In the case of “958383 (antisense k[5mC]*kT*kT*d[5mC]*d[5mC]*dT*d[5mC]*dT*dG*d[5mC]*dG*d[5mC]*dG*k[5mC]*k[5mC]*k[5mC]) [Compound 958383]”, the “YAP1 (% UTC)” value was determined as 96 % UTC.
The figure for “958384 (antisense k[5mC]*k[5mC]*kT*dT*d[5mC]*d[5mC]*dT*d[5mC]*dT*dG*d[5mC]*dG*d[5mC]*kG*k[5mC]*k[5mC]) [Compound 958384]” is 131 % UTC; for “958385 (antisense kG*k[5mC]*kG*d[5mC]*dG*d[5mC]*dG*d[5mC]*dA*dT*dT*dG*dT*kG*k[5mC]*kA) [Compound 958385]” it is 115 % UTC; for “958386 (antisense kG*kG*k[5mC]*dG*d[5mC]*dG*d[5mC]*dG*d[5mC]*dA*dT*dT*dG*kT*kG*k[5mC]) [Compound 958386]” it is 111 % UTC.
Next, “958387 (antisense kG*kA*kG*dG*d[5mC]*dG*d[5mC]*dG*d[5mC]*dG*d[5mC]*dA*dT*kT*kG*kT) [Compound 958387]”: 131 % UTC.
With “958388 (antisense kG*kG*kA*dG*dG*d[5mC]*dG*d[5mC]*dG*d[5mC]*dG*d[5mC]*dA*kT*kT*kG) [Compound 958388]”, the “YAP1 (% UTC)” value came out at 112 % UTC.
With “958389 (antisense k[5mC]*kG*kG*dA*dG*dG*d[5mC]*dG*d[5mC]*dG*d[5mC]*dG*d[5mC]*kA*kT*kT) [Compound 958389]”, the “YAP1 (% UTC)” value is reported as 126 % UTC.
The figure for “958390 (antisense kG*k[5mC]*kG*dA*dA*dG*dG*dT*dG*d[5mC]*dG*dG*dA*kG*k[5mC]*kG) [Compound 958390]” is 145 % UTC; for “958391 (antisense kA*kG*k[5mC]*dG*dA*dA*dG*dG*dT*dG*d[5mC]*dG*dG*kA*kG*k[5mC]) [Compound 958391]” it is 102 % UTC.
Next, “958392 (antisense k[5mC]*kT*kA*dT*dG*dA*dG*dT*d[5mC]*dA*dA*d[5mC]*d[5mC]*kT*kG*k[5mC]) [Compound 958392]”: 50 % UTC.
Next, “958393 (antisense kG*k[5mC]*k[5mC]*dT*dA*dT*dG*dA*dG*dT*d[5mC]*dA*dA*k[5mC]*k[5mC]*kT) [Compound 958393]”: 89 % UTC.
As for “958394 (antisense kT*kT*kG*dA*dA*dA*d[5mC]*d[5mC]*dT*dG*dA*dT*d[5mC]*k[5mC]*kT*kT) [Compound 958394]”, the “YAP1 (% UTC)” value amounted to 54 % UTC.
Next, “958395 (antisense k[5mC]*kT*kA*dA*d[5mC]*dA*dA*d[5mC]*d[5mC]*dT*dG*dG*dT*kT*kT*kG) [Compound 958395]”: 114 % UTC.
Next, “958396 (antisense kA*kG*kG*d[5mC]*dT*dA*dT*dT*dA*dA*dG*d[5mC]*dT*kG*kT*kT) [Compound 958396]”: 131 % UTC; “958397 (antisense k[5mC]*kA*kG*dG*d[5mC]*dT*dA*dT*dT*dA*dA*dG*d[5mC]*kT*kG*kT) [Compound 958397]”: 127 % UTC; “958398 (antisense kG*k[5mC]*kA*dG*dG*d[5mC]*dT*dA*dT*dT*dA*dA*dG*k[5mC]*kT*kG) [Compound 958398]”: 76 % UTC.
Consider “958399 (antisense kG*kA*k[5mC]*d[5mC]*dA*dA*d[5mC]*dT*dA*d[5mC]*dT*dT*dG*kA*kA*kG) [Compound 958399]”, for which the “YAP1 (% UTC)” value is reported as 45 % UTC.
Next, “958400 (antisense kT*kT*kG*dA*d[5mC]*d[5mC]*dA*dA*d[5mC]*dT*dA*d[5mC]*dT*kT*kG*kA) [Compound 958400]”: 26 % UTC; “958401 (antisense kA*kG*kT*dT*dA*dT*dT*d[5mC]*dA*dG*d[5mC]*dA*dG*k[5mC]*kT*kT) [Compound 958401]”: 19 % UTC; “958402 (antisense k[5mC]*kT*k[5mC]*dT*dT*dA*d[5mC]*dA*d[5mC]*dA*dG*d[5mC]*d[5mC]*kT*kA*kG) [Compound 958402]”: 28 % UTC.
Turning to “958403 (antisense k[5mC]*kA*kG*dT*dT*dT*dA*dT*dG*dT*dA*dG*dT*kA*kG*kT) [Compound 958403]”, the “YAP1 (% UTC)” value turned out to be 5 % UTC.
Next, “958404 (antisense kG*k[5mC]*kA*d[5mC]*dA*d[5mC]*dA*dA*d[5mC]*dT*d[5mC]*dA*dG*kA*k[5mC]*kA) [Compound 958404]”: 52 % UTC.
The figure for “958405 (antisense kT*kT*kA*dT*dG*dG*dG*dA*dT*dG*dA*dG*dT*kG*k[5mC]*kT) [Compound 958405]” is 24 % UTC.
Next, “958406 (antisense kT*kT*kT*d[5mC]*dA*dG*dT*dT*dA*dT*d[5mC]*dG*dG*k[5mC]*k[5mC]*k[5mC]) [Compound 958406]”: 29 % UTC; “958407 (antisense kA*kA*kT*dA*d[5mC]*dT*dG*dA*dT*d[5mC]*dT*dG*d[5mC]*kA*kG*k[5mC]) [Compound 958407]”: 35 % UTC; “958408 (antisense k[5mC]*kT*kA*dT*dA*dT*dA*dT*dG*dG*dT*dA*dG*kT*k[5mC]*kT) [Compound 958408]”: 20 % UTC.
For the substance “958409 (antisense kT*kT*kA*d[5mC]*d[5mC]*dA*dA*dA*dA*d[5mC]*dG*dA*dG*kG*kG*kT) [Compound 958409]”, the “YAP1 (% UTC)” value was determined as 99 % UTC.
Next, “958410 (antisense kT*kT*kT*dA*d[5mC]*d[5mC]*dA*dA*dA*dA*d[5mC]*dG*dA*kG*kG*kG) [Compound 958410]”: 70 % UTC; “958411 (antisense k[5mC]*kT*kT*dT*dA*d[5mC]*d[5mC]*dA*dA*dA*dA*d[5mC]*dG*kA*kG*kG) [Compound 958411]”: 90 % UTC.
